US12023317B2, “Composition for ameliorating psoriasis comprising cimicifugolide a as active ingredient” (KOREA INSTITUTE OF SCIENCE AND TECHNOLOGY, priority 2021, dated 2024)

Tested on: psoriasis
Assay: psoriasis-induced group: skin moisture, damaged area, skin morphology, inflammation
Assay type: in vivo
Conditions: when cimicifugolide A is administered

For `CC(C)=CC1OC(=O)/C(=C\CO)C1O` (stereo not shown) [cimicifugolide A, (Z)-4-Hydroxy-3-(2-hydroxyethylidene)-5-(2-methylprop-1-en-1-yl)dihydrofuran-2(3H)-one], the inflammation expression was “inhibition”, the moisture content was “increased” and the moisture loss was “decreased”. For the same compound, the skin morphological changes was “inhibition”.
